In general, IC50 refers to the concentration at which inhibition is half-maximal. Broadly, the solubility is how much of the substance goes into solution per volume. In general, clearance refers to the volume of plasma or blood freed of the substance per unit of time. The low end stands for a low capacity for elimination, the high end for a high capacity for elimination. The term bioavailability denotes dose-corrected exposure relative to a reference, in per cent. Read a high bioavailability as good availability. In general, Cmax refers to the highest concentration seen after dosing.

A short description of data set [1]: Antiproliferative activity against human GTL16 cells after 72 hrs by tetrazolium-based colorimetric assay. The note with it: GTL 16, 72 h.
Data set [2] in a line: Aqueous solubility at pH 6.5. It is filed as physicochemical.
The test system of another data set is Liver. In words: Metabolic stability in mouse liver microsomes. In kind it is ADME, Microsome. (In general: Liver microsomes are a subcellular fraction often used to study metabolism.)
Data set [3] in a line: Metabolic stability per 10^6 cells in mouse hepatocytes. In kind it is ADME, cell-based, Hepatocyte.
Data set [4] can be described thus: Clearance in mouse at 20 mg/kg, iv. In kind it is ADME, organism-based. The note with it: in vivo. On the set-up: dose 20 mg/kg, route intravenous.
Data set [5] can be described thus: Bioavailability in mouse at 20 mg/kg, ip. In kind it is ADME, organism-based. The note with it: in vivo.
A short description of data set [6]: Cmax in mouse at 50 mg/kg, po. It is filed as ADME, organism-based. Also on record: dose 50 mg/kg, route oral. The note with it: in vivo.
The nature of data set [7]: Permeability across human Caco-2 cells. It is filed as ADME, cell-based. Particulars: read-out: permeability. For orientation: Passage across Caco-2 layers is used to estimate intestinal permeability.
Data set [8] has as its target Insulin-like growth factor 1 receptor (Homo sapiens, UniProt P08069). In words: Inhibition of IGF1R.
The target in a further data set is Insulin receptor (Homo sapiens, UniProt P06213). The data set is described as follows: Inhibition of InsR.
For data set [9], the target named is Vascular endothelial growth factor receptor 2 (Homo sapiens, UniProt P35968). In words: Inhibition of VEGFR2.
Data set [10] concerns the target Cyclin-dependent kinase 2 (Homo sapiens, UniProt P24941). The data set is described as follows: Inhibition of CDK2.
A short description of data set [11]: Inhibition of PKC.
Data set [12] in a line: Inhibition of PKA.
Data set [13] addresses Receptor tyrosine-protein kinase erbB-2 (Homo sapiens, UniProt P04626). In words: Inhibition of HER2.
Data set [14] addresses MAP kinase-activated protein kinase 2 (Homo sapiens, UniProt P49137). The data set is described as follows: Inhibition of MK2.
In data set [15] the target is High affinity nerve growth factor receptor (Homo sapiens, UniProt P04629). In words: Inhibition of TrkA.
Data set [16] deals with Tyrosine-protein kinase Lck (Homo sapiens, UniProt P06239). In words: Inhibition of lck.
For data set [17], the target named is Hepatocyte growth factor receptor (Homo sapiens, UniProt P08581). In words: Inhibition of human recombinant c-Met expressed in insect cell-baculovirus expression system.

≈ marks a conversion by molar mass, not a printed value. Some results are limits rather than exact numbers.

Chain of Insulin receptor (P06213 28-758 limits assumed): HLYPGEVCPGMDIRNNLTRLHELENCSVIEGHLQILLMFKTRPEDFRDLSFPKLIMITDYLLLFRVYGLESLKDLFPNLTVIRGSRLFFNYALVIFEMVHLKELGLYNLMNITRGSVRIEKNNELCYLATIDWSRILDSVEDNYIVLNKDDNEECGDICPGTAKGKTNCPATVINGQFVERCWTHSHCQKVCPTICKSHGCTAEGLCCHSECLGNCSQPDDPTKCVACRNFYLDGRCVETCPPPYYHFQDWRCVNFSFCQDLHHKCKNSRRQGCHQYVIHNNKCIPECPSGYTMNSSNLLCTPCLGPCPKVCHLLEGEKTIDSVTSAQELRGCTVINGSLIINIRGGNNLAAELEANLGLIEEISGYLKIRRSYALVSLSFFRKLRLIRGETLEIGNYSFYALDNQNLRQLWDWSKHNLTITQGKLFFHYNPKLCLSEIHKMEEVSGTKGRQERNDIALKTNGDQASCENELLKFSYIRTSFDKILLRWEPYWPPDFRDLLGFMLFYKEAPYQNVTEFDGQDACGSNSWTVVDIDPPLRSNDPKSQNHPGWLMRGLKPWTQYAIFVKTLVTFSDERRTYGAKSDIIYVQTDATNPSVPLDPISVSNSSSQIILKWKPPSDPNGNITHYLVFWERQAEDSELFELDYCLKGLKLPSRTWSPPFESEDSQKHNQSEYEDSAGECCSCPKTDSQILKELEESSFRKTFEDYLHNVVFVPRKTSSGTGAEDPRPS
Chain of Insulin receptor (P06213 763-1382 limits assumed): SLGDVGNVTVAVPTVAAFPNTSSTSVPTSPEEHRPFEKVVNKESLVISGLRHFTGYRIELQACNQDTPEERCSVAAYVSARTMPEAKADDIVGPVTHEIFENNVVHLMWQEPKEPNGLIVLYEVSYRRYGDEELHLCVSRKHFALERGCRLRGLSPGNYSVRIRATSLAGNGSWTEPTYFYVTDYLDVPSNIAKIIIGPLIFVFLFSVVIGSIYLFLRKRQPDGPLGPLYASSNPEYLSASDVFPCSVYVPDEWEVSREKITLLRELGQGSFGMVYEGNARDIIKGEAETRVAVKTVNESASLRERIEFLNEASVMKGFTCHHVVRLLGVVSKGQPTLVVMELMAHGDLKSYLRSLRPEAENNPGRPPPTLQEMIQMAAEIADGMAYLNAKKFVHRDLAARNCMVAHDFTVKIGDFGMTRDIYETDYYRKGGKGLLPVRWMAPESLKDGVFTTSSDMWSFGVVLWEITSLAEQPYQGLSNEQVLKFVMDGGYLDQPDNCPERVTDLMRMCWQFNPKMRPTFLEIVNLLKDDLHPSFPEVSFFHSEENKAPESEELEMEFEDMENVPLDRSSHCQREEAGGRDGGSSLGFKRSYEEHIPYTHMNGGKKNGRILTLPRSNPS
Chain of Tyrosine-protein kinase Lck (P06239 whole entry): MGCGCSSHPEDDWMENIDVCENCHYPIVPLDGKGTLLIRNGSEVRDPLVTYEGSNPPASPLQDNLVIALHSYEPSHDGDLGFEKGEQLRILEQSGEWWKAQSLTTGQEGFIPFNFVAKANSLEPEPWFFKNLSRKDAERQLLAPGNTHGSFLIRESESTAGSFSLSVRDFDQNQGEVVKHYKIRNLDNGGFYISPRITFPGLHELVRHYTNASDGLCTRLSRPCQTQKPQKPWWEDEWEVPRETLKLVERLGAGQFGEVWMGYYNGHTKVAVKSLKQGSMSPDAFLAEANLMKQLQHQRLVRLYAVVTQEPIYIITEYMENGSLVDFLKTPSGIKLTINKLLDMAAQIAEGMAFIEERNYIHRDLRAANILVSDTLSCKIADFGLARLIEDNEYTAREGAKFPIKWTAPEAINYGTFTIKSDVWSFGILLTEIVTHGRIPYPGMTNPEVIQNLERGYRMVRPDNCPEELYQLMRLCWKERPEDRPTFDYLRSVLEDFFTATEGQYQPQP
Chain of Hepatocyte growth factor receptor (P08581 whole entry): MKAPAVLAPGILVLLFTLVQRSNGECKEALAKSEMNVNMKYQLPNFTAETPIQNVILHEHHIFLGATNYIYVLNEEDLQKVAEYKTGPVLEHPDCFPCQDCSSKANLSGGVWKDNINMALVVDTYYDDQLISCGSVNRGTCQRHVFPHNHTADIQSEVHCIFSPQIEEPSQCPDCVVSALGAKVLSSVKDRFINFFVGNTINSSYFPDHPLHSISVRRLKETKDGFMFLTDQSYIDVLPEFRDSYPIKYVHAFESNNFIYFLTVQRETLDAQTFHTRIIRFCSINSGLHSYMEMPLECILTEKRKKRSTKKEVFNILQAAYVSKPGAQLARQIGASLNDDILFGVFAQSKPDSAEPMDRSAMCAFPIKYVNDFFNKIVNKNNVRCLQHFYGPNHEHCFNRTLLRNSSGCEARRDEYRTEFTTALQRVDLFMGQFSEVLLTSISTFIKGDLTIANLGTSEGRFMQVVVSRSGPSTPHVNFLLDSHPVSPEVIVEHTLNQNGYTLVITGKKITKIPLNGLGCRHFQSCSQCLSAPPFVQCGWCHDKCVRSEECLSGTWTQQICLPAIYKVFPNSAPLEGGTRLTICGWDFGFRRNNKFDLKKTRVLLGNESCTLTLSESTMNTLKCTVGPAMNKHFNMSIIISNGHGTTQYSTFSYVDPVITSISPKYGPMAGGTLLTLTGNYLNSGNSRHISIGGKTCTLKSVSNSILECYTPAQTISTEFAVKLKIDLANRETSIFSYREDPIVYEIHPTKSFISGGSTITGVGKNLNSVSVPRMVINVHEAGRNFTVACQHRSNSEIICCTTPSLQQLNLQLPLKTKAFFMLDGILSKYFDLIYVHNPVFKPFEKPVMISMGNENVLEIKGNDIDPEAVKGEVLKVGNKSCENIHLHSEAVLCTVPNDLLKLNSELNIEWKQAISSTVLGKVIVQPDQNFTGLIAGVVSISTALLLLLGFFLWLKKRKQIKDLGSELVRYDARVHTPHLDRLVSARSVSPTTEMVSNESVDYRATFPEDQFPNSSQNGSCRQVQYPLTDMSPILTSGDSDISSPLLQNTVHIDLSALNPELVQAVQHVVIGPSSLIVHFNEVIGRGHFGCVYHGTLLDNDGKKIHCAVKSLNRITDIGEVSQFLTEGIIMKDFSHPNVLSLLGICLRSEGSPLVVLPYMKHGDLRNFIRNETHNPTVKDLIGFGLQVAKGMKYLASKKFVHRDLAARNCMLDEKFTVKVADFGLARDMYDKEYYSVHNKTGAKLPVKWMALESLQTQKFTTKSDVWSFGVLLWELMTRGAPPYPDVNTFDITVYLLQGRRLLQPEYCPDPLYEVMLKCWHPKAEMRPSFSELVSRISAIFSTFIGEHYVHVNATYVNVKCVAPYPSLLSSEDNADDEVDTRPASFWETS
Chain of Vascular endothelial growth factor receptor 2 (P35968 whole entry): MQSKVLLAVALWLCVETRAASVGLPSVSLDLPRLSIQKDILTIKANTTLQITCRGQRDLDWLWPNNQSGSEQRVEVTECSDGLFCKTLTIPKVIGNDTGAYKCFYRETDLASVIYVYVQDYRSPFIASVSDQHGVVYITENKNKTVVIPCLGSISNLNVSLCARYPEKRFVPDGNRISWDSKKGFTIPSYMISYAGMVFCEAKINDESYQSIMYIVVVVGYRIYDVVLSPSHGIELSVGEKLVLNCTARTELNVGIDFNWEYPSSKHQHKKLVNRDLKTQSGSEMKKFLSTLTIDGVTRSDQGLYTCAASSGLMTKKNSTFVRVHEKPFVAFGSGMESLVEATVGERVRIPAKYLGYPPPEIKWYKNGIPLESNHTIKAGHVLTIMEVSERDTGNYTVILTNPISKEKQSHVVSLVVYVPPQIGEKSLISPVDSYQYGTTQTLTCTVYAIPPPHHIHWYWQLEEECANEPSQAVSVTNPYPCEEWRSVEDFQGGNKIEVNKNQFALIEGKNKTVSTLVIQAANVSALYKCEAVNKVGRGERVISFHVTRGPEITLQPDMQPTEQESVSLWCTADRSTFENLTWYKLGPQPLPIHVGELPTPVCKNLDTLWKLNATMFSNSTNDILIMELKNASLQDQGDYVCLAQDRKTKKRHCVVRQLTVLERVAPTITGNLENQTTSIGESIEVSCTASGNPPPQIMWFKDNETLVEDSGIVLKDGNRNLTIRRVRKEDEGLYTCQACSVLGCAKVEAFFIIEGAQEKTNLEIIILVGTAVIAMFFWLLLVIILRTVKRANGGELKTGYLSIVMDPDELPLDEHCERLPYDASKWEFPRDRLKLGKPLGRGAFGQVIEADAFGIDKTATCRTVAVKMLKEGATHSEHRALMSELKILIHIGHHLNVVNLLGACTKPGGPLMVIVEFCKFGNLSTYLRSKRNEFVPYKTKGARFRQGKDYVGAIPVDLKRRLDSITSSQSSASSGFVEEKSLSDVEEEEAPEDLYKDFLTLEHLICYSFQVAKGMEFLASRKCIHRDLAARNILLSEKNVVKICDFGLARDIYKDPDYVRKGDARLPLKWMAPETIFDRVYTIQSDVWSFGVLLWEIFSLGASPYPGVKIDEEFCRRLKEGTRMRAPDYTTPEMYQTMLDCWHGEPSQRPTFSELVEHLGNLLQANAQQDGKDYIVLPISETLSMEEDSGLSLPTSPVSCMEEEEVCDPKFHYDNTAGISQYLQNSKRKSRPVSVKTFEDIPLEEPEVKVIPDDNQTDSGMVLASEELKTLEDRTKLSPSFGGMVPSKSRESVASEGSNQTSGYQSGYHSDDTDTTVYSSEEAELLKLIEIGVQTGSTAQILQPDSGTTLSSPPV
Chain of MAP kinase-activated protein kinase 2 (P49137 whole entry): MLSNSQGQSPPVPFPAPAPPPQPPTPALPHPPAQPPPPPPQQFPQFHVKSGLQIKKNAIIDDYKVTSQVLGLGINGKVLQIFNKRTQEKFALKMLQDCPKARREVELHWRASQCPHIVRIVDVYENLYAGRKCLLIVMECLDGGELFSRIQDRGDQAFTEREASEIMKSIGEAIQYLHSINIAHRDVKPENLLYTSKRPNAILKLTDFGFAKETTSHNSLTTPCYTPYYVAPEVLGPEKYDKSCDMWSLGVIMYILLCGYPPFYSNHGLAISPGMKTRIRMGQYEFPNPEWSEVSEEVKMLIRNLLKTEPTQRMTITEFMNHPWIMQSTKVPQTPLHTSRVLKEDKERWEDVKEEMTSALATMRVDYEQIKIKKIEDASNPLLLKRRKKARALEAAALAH

Turning to `Cc1c(OCCN2CCN(C)CC2)cn2ncnc(Oc3ccc(NC(=O)c4cc(Cl)ccc4F)cc3F)c12`, the concentration for half-maximal inhibition (IC50) in data set [1] was determined as 0.27 µM.

As for `O=C(Cc1ccc(F)cc1)NC(=O)Nc1ccc(Oc2ncnn3ccc(CN4CCNCC4)c23)c(F)c1`, the solubility in data set [2] turned out to be 290 µg/mL (≈ 556 µM).

On to `NC1CCN(Cc2ccn3ncnc(Oc4ccc(NC(=O)NC(=O)Cc5ccc(F)cc5)cc4F)c23)CC1`, for which the Stability with Liver is 0 nmol/min/mg; in [3] it was 2 pmol/min. Further, in data set [4], the clearance amounted to 25 mL/min/kg. In data set [5], this molecule came in with a bioavailability of 81%. In data set [6], this molecule registered a Cmax of 780 nM. Further, the Papp in [7] is below 1.5 ×10⁻⁶ cm/s. The IC50 (in data set [8]; against Insulin receptor; in [9]; in [10]; in [11]; in data set [12]) was above 5 µM each time. For the same molecule, the IC50 in data set [13] was above 5 µM; in [14], above 5 µM; in [15] it was 0.2 µM; in data set [16], above 5 µM.

As to `NC1CCC(=Cc2ccn3ncnc(Oc4ccc(NC(=O)NC(=O)Cc5ccc(F)cc5)cc4F)c23)CC1` (stereo unspecified), the IC50 in data set [1] was found to be 0.14 µM.

`Cc1c(OCCCN(C)C)cn2ncnc(Oc3ccc(NC(=O)CC(=O)Nc4ccc(F)cc4)cc3F)c12`: the IC50 in data set [1] amounted to 0.27 µM.

As to `O=C(Cc1ccc(F)cc1)NC(=O)Nc1ccc(Oc2ncnn3ccc(Cl)c23)c(F)c1`, the IC50 in data set [17] is above 2 µM.

The molecule `Cc1c(OCCN2CCN(C)CC2)cn2ncnc(Oc3ccc(NC(=O)c4ccccc4F)cc3F)c12` displayed an IC50 in [1] of 0.84 µM.

With `Cc1c(OCCN2CCN(C)CC2)cn2ncnc(Oc3ccc(NC(=O)c4cc(F)ccc4F)cc3F)c12`, the IC50 in [1] is above 1 µM.

For the molecule `Cc1c(OCCN2CCN(C)CC2)cn2ncnc(Oc3ccc(NC(=O)c4c(F)cccc4F)cc3F)c12`, in data set [1], the IC50 was above 1 µM.

In turn, `Cc1c(OCCCN(C)C)cn2ncnc(Oc3ccc(NC(=O)c4c(F)cccc4F)cc3F)c12` returned an IC50 in [1] of 0.17 µM.

`Cc1c(OCCCN(C)C)cn2ncnc(Oc3ccc(NC(=O)NC(=O)Cc4ccc(F)cc4)cc3F)c12`: in [1], inhibition was half-maximal at 0.068 µM (IC50).
